The test system of the assay is P388 leukemia ip, CD2F1 mice, survival T/C. Description: NCI In Vivo Anticancer Drug Screen. Data for tumor model P388 Leukemia (intraperitoneal) in CD2F1 (CDF1) mice. The note with it: endpoint: median survival time, higher = longer survival. The method, boiled down: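 Mice carrying the transplanted tumor received test compound or vehicle. Survival was recorded in each group, and the value is the treated-group measurement divided by that of the vehicle-treated control group.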

Setting [1] is: dose: 100.0 mg/kg/injection, schedule: Q04DX002 (ip), vehicle: Klucel (hydroxypropylcellulose) (HPC).
Setting [2] is: dose: 200.0 mg/kg/injection, schedule: Q04DX002 (ip), vehicle: Klucel (hydroxypropylcellulose) (HPC).
Where [3] appears, read: dose: 400.0 mg/kg/injection, schedule: Q04DX002 (ip), vehicle: Klucel (hydroxypropylcellulose) (HPC).
Where [4] appears, read: dose: 100.0 mg/kg/injection, schedule: Q04DX002 (ip), vehicle: saline with Tween-80.
Setting [5] is: dose: 25.0 mg/kg/injection, schedule: Q01DX001 (ip), vehicle: Klucel (hydroxypropylcellulose) (HPC).
The mark [6] stands for this setting: dose: 50.0 mg/kg/injection, schedule: Q01DX001 (ip), vehicle: Klucel (hydroxypropylcellulose) (HPC).
Where [7] appears, read: dose: 50.0 mg/kg/injection, schedule: Q01DX005 (ip), vehicle: saline with Tween-80.
[8] abbreviates: dose: 100.0 mg/kg/injection, schedule: Q01DX005 (ip), vehicle: saline with Tween-80.
[9] abbreviates: dose: 50.0 mg/kg/injection, schedule: Q01DX009 (ip), vehicle: Klucel (hydroxypropylcellulose) (HPC).
Where [10] appears, read: dose: 50.0 mg/kg/injection, schedule: Q01DX009 (ip), vehicle: saline with Tween-80.
Where [11] appears, read: dose: 100.0 mg/kg/injection, schedule: Q01DX009 (ip), vehicle: saline with Tween-80.

Values joined by “and” are separate entries in the source; they are usually repeats but may differ in a detail not shown here. Equal entries are not always repeated. Toxic doses and inconclusive results are not listed.

On to `CC(=O)NCCSSCc1ccccc1CS(=O)O`, for which the T/C was 104 % of control (dose: 25.0 mg/kg/injection, schedule: Q01DX005 (ip), vehicle: suspension in saline); 106 % of control (dose: 50.0 mg/kg/injection, schedule: Q01DX005 (ip), vehicle: suspension in saline); 113 % of control (dose: 100.0 mg/kg/injection, schedule: Q01DX005 (ip), vehicle: suspension in saline).

On to `Cn1c(=O)[nH]c2c(c1=O)CCCN2`, for which the T/C was 104 % of control under setting [1], 98 % of control under setting [2] and 98 % of control under setting [3].

On to `CC(C)(C)C1CCC(=NSC(c2ccccc2)(c2ccccc2)c2ccccc2)CC1` (stereo not drawn), for which the T/C reads like this: under setting [4], 95 % of control; (dose: 200.0 mg/kg/injection, schedule: Q04DX002 (ip), vehicle: saline with Tween-80) 87 % of control; (dose: 400.0 mg/kg/injection, schedule: Q04DX002 (ip), vehicle: saline with Tween-80) 89 % of control.

In the case of `Nc1ccc(Cn2ccc3c4c(N)nc(N)nc4ccc32)cc1`, the T/C was 106 % of control and 117 % of control (dose: 1.25 mg/kg/injection, schedule: Q01DX009 (ip), vehicle: saline with Tween-80); 110 % of control and 111 % of control and 112 % of control (dose: 2.5 mg/kg/injection, schedule: Q01DX009 (ip), vehicle: saline with Tween-80); 121 % of control (dose: 5.0 mg/kg/injection, schedule: Q01DX009 (ip), vehicle: saline with Tween-80); 151 % of control and 186 % of control (dose: 10.0 mg/kg/injection, schedule: Q01DX009 (ip), vehicle: saline with Tween-80); 182 % of control (dose: 20.0 mg/kg/injection, schedule: Q01DX009 (ip), vehicle: saline with Tween-80); 105 % of control (dose: 40.0 mg/kg/injection, schedule: Q01DX009 (ip), vehicle: saline with Tween-80).

Regarding `CC(C)OC(=O)Cn1c(=O)c2nnnn2c2ccccc21`, the T/C reads like this: under setting [1], 93 % of control; under setting [2], 98 % of control; under setting [3], 93 % of control.

As to `C/C(=N\NC(N)=Nc1ccccc1)c1ccc2c(c1)Cc1ccccc1-2`, the T/C is, setting by setting: (dose: 25.0 mg/kg/injection, schedule: Q04DX002 (ip), vehicle: saline with Tween-80) 103 % of control; (dose: 50.0 mg/kg/injection, schedule: Q04DX002 (ip), vehicle: saline with Tween-80) 94 % of control; under setting [4], 104 % of control.

`O=C(CN1CCCCC1)Nc1ccc2c(c1)C(=O)c1ccc(NC(=O)CN3CCCCC3)cc1C2=O`: the T/C runs as follows: (dose: 50.0 mg/kg/injection, schedule: Q01DX005 (ip), vehicle: Klucel (hydroxypropylcellulose) (HPC)) 90 % of control and 97 % of control; (dose: 50.0 mg/kg/injection, schedule: Q01DX005 (ip), vehicle: acid diluted with saline) 100 % of control; (dose: 100.0 mg/kg/injection, schedule: Q01DX005 (ip), vehicle: Klucel (hydroxypropylcellulose) (HPC)) 90 % of control and 94 % of control; (dose: 100.0 mg/kg/injection, schedule: Q01DX005 (ip), vehicle: acid diluted with saline) 106 % of control; (dose: 200.0 mg/kg/injection, schedule: Q01DX005 (ip), vehicle: Klucel (hydroxypropylcellulose) (HPC)) 90 % of control and 95 % of control; (dose: 200.0 mg/kg/injection, schedule: Q01DX005 (ip), vehicle: acid diluted with saline) 108 % of control.

For the compound `CC(C)Cc1nccs1.CC(C)Cc1nccs1.CC(C)Cc1nccs1.CC(C)Cc1nccs1.[Cl][Rh][Cl]`, the T/C is, setting by setting: under setting [5], 108 % of control; under setting [6], 100 % of control; (dose: 100.0 mg/kg/injection, schedule: Q01DX001 (ip), vehicle: Klucel (hydroxypropylcellulose) (HPC)) 112 % of control.

For the compound `COC1NC(=O)N(C)N(C)C1=O` (stereo not drawn), the T/C (dose: 50.0 mg/kg/injection, schedule: Q01DX005 (ip), vehicle: saline) is 100 % of control; the T/C (dose: 100.0 mg/kg/injection, schedule: Q01DX005 (ip), vehicle: saline) was 99 % of control; the T/C (dose: 200.0 mg/kg/injection, schedule: Q01DX005 (ip), vehicle: saline) is 100 % of control.

Take `C=C1C[C@@H](C2OC3OC(C)(C)OC3C2OCc2ccccc2)OC1=O` (stereo partly drawn): the T/C is 116 % of control under setting [7] and 124 % of control under setting [8].

In the case of `CN(C)N=Nc1cccc(Cl)c1`, the T/C runs as follows: (dose: 6.25 mg/kg/injection, schedule: Q01DX009 (ip), vehicle: Klucel (hydroxypropylcellulose) (HPC)) 95 % of control; (dose: 12.5 mg/kg/injection, schedule: Q01DX009 (ip), vehicle: Klucel (hydroxypropylcellulose) (HPC)) 105 % of control; (dose: 12.5 mg/kg/injection, schedule: Q01DX009 (ip), vehicle: saline with Tween-80) 100 % of control; (dose: 25.0 mg/kg/injection, schedule: Q01DX009 (ip), vehicle: Klucel (hydroxypropylcellulose) (HPC)) 98 % of control; (dose: 25.0 mg/kg/injection, schedule: Q01DX009 (ip), vehicle: saline + alcohol) 107 % of control; (dose: 25.0 mg/kg/injection, schedule: Q01DX009 (ip), vehicle: saline with Tween-80) 98 % of control. Besides, the T/C (dose: 25.0 mg/kg/injection, schedule: Q01DX009 (ip), vehicle: saline) is 91 % of control; the T/C under setting [9] is 100 % of control; the T/C (dose: 50.0 mg/kg/injection, schedule: Q01DX009 (ip), vehicle: saline + alcohol) is 120 % of control; the T/C under setting [10] was 107 % of control; the T/C (dose: 50.0 mg/kg/injection, schedule: Q01DX009 (ip), vehicle: saline) was 99 % of control; the T/C under setting [11] was 105 % of control. Further, the T/C by setting is: (dose: 100.0 mg/kg/injection, schedule: Q01DX009 (ip), vehicle: saline) 97 % of control; (dose: 200.0 mg/kg/injection, schedule: Q01DX009 (ip), vehicle: saline) 100 % of control.

As for `Cc1ccc2c(c1)C1(C)OC(C=CC1(C)O)O2` (stereo not drawn), the T/C is, setting by setting: under setting [7], 101 % of control; under setting [8], 106 % of control; (dose: 200.0 mg/kg/injection, schedule: Q01DX005 (ip), vehicle: saline with Tween-80) 106 % of control.

For `C[N+](C)(C)/N=C(/c1ccccc1)C1CCCCC1`, the T/C runs as follows: (dose: 12.5 mg/kg/injection, schedule: Q01DX001 (ip), vehicle: Klucel (hydroxypropylcellulose) (HPC)) 91 % of control; under setting [5], 100 % of control; under setting [6], 97 % of control.

For `Cc1ccc(/C=C2/C/C(=C\c3ccc(C)cc3)C2=O)cc1`, the T/C is 94 % of control (dose: 12.5 mg/kg/injection, schedule: Q04DX003 (ip), vehicle: Klucel (hydroxypropylcellulose) (HPC)); 92 % of control (dose: 25.0 mg/kg/injection, schedule: Q04DX003 (ip), vehicle: Klucel (hydroxypropylcellulose) (HPC)); 87 % of control (dose: 50.0 mg/kg/injection, schedule: Q04DX003 (ip), vehicle: Klucel (hydroxypropylcellulose) (HPC)); 88 % of control (dose: 400.0 mg/kg/injection, schedule: Q04DX003 (ip), vehicle: Klucel (hydroxypropylcellulose) (HPC)).

On to `COc1ccc(C(c2cc3c(cc2O)OCO3)N2CCOCC2)cc1` (stereo not drawn), for which the T/C by setting is: (dose: 60.0 mg/kg/injection, schedule: Q01DX005 (ip), vehicle: saline with Tween-80) 118 % of control; (dose: 120.0 mg/kg/injection, schedule: Q01DX005 (ip), vehicle: saline with Tween-80) 109 % of control and 119 % of control; (dose: 240.0 mg/kg/injection, schedule: Q01DX005 (ip), vehicle: saline with Tween-80) 120 % of control.

For `N#Cc1cnn(-c2cc(Cl)c(Cl)cc2Cl)c1N`, the T/C by setting is: (dose: 100.0 mg/kg/injection, schedule: Q04DX003 (ip), vehicle: saline with Tween-80) 99 % of control; (dose: 200.0 mg/kg/injection, schedule: Q04DX003 (ip), vehicle: saline with Tween-80) 103 % of control; (dose: 400.0 mg/kg/injection, schedule: Q04DX003 (ip), vehicle: saline with Tween-80) 111 % of control.

Consider `COc1ccc(C(C)=O)cc1CS/C(=N/S(=O)(=O)c1ccccc1)Nc1cccc(Cl)c1Cl`, for which the T/C reads like this: under setting [9], 101 % of control; (dose: 100.0 mg/kg/injection, schedule: Q01DX009 (ip), vehicle: Klucel (hydroxypropylcellulose) (HPC)) 101 % of control; (dose: 200.0 mg/kg/injection, schedule: Q01DX009 (ip), vehicle: Klucel (hydroxypropylcellulose) (HPC)) 98 % of control.

Consider `CCCCOC(=O)NC(=O)c1cc2cc(Cl)ccc2oc1=O`, for which the T/C is 95 % of control under setting [7] and 88 % of control under setting [8].

For the compound `Nc1ccc2c(n1)NCC/C2=N\Nc1ccc(Br)cc1`, the T/C reads like this: under setting [10], 103 % of control; under setting [11], 104 % of control; (dose: 200.0 mg/kg/injection, schedule: Q01DX009 (ip), vehicle: saline with Tween-80) 106 % of control.

These data come from PubChem BioAssay AID330 (DTP/NCI, 2004).
